Among the data in US11453681B2, “Substituted eneoxindoles and uses thereof” (Gilead Sciences, Inc., priority 2019, dated 2022) are IC50 values, retold here.

Chain of human HPK1 (MAP4K1) (Q92918 17-274): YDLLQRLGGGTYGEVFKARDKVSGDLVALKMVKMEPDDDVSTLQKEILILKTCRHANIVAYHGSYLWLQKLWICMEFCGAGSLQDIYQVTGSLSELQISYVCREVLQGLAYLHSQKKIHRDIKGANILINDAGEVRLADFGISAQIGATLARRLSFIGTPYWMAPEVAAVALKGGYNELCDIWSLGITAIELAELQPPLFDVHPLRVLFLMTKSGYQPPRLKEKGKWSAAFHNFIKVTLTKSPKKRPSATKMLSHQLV

The test has as its target human HPK1 (MAP4K1) (Homo sapiens (Human), UniProt Q92918). The test can be described thus: HPK1 IC50 Assay. Type of test: biochemical. As to conditions: recombinant HPK1 kinase domain 0.15 nM, synthetic peptide substrate STK S1, 3 hours at 25° C., time-resolved fluorescence energy transfer; geometric mean of multiple experiments. The method, then: The enzymatic activity of human HPK1 (MAP4K1) was monitored in a biochemical assay in the presence or absence of compounds and using a synthetic peptide substrate. An increase in phosphorylation of the peptide by HPK1 was indicative of its kinase activity.
Recombinant HPK1 kinase domain produced via baculovirus infection of insect cells was obtained from Proteros (Proteros Biostructures #PR-0322) and was pre-activated in the presence of 2 mM ATP (Sigma-Aldrich, cat #GE27-2056-01) and 2 mM magnesium chloride for 16 hours at 4° C. The protein reaction mixture was then loaded to a desalting column (Thermo Fisher Scientific, Cat #89889) to remove excess ATP. HPK1 was eluted with buffer containing 20 mM Tris (2-Amino-2-(hydroxymethyl)propane-1,3-diol) pH 8.0, 150 mM NaCl, 2 mM dithiothreitol and 5% glycerol, and was frozen at −80° C. for later use. HPK1 dual phosphorylation was confirmed by mass spectrometry.
Ten nanoliters of test compounds dissolved in DMSO at various concentrations were dispensed into a 384-well ProxiPlate (PerkinElmer #6008289). Five microliters of a solution of recombinant HPK1 diluted in HPK1 kinase assay buffer (50 mM BES [N,N-Bis(2-hydroxyethyl)-2-aminoethanesulfonic acid], pH 7.0; 10 mM magnesium chloride; 0.01% Triton X-100; 1 mM dithiothreitol; 0.01% bovine serum albumin; 0.1 mM sodium orthovanadate) was added to the compound-containing plate and was incubated for 15 minutes at 25° C. Five microliters of a mixture of ATP (Sigma-Aldrich #A6559) and peptide substrate STK Si (Cisbio #61ST1BLC) diluted in HPK1 kinase assay buffer was then added to start the reaction. Final concentrations were 0.15 nM for HPK1, […], and 1 […]. The reaction mixture was incubated at 25° C. for 3 hours and was stopped with the addition of 10 μl of an EDTA (Ethylenediaminetetraacetic acid)-containing detection buffer (Cisbio #62SDBRDF) supplemented with Europium cryptate-labeled anti-phospho-serine/threonine antibodies (Cisbio #62ST1PEJ) and XL665-labeled streptavidin (Cisbio #610SAXLG). The mixture was incubated for 16 hours at room temperature and peptide phosphorylation was measured by time-resolved fluorescence energy transfer (665 nm/620 nm) on an Envision plate reader (PerkinElmer).
Data in Table 1 were normalized based on positive (staurosporine) and negative (DMSO) controls. Least squares curve fittings were performed using a four-parameter variable slope nonlinear regression model. IC50 is defined as the concentration of compound required to inhibit 50% of maximum phosphorylation. IC50 values from multiple experiments were averaged by geometric mean and the standard deviation was calculated.
With `Cc1c(-c2ccc3c(c2)/C(=C/c2cc(Br)c[nH]2)C(=O)N3)cnc2c1NCCO2` [Compound C20, (Z)-3-((4-bromo-1H-pyrrol-2-yl)methylene)-5-(8-methyl-2,3-dihydro-1H-pyrido[2,3-b][1,4]oxazin-7-yl)indolin-2-one], the IC50 turned out to be 160 pM.

Turning to `Cc1cc2c(cc1-c1cnc3c(c1C)NCCO3)/C(=C/c1cc3ccncc3[nH]1)C(=O)N2` [Compound C37, (Z)-3-((1H-pyrrolo[2,3-c]pyridin-2-yl)methylene)-6-methyl-5-(8-methyl-2,3-dihydro-1H-pyrido[2,3-b][1,4]oxazin-7-yl)indolin-2-one], the IC50 was determined as 690 pM.

As for `Cc1c(-c2cc3c(cc2F)NC(=O)/C3=C\c2cc3ccncc3[nH]2)cnc2c1NCCO2` [Compound C43, (Z)-3-((1H-pyrrolo[2,3-c]pyridin-2-yl)methylene)-6-fluoro-5-(8-methyl-2,3-dihydro-1H-pyrido[2,3-b][1,4]oxazin-7-yl)indolin-2-one], the IC50 was 130 pM.

`Cc1cc2c(cc1-c1cnc3c(c1C)NCCO3)/C(=C/c1cc3cnccc3[nH]1)C(=O)N2` [Compound C40, (Z)-3-((1H-pyrrolo[3,2-c]pyridin-2-yl)methylene)-6-methyl-5-(8-methyl-2,3-dihydro-1H-pyrido[2,3-b][1,4]oxazin-7-yl)indolin-2-one]: the IC50 came to 70 pM.

Take `Cc1c[nH]c(/C=C2\C(=O)Nc3c(F)cc(-c4cnc5c(c4C)NCCO5)cc32)c1` [Compound C25, (Z)-7-fluoro-3-((4-methyl-1H-pyrrol-2-yl)methylene)-5-(8-methyl-2,3-dihydro-1H-pyrido[2,3-b][1,4]oxazin-7-yl)indolin-2-one]: the IC50 was determined as 50 pM.

As for `Cc1c(-c2cc(Cl)c3c(c2)/C(=C/c2cn[nH]c2)C(=O)N3)cnc2c1NCCO2` [Compound C66, (Z)-3-((1H-pyrazol-4-yl)methylene)-7-chloro-5-(8-methyl-2,3-dihydro-1H-pyrido[2,3-b][1,4]oxazin-7-yl)indolin-2-one], the IC50 worked out at 6900 pM.

In the case of `Cc1c(-c2cc(F)c3c(c2C)/C(=C/c2cn[nH]c2)C(=O)N3)cnc2c1NCCO2` [Compound C65, (Z)-3-((1H-pyrazol-4-yl)methylene)-7-fluoro-4-methyl-5-(8-methyl-2,3-dihydro-1H-pyrido[2,3-b][1,4]oxazin-7-yl)indolin-2-one], the IC50 turned out to be 1030 pM.

`Cc1c(-c2ccc3c(c2)/C(=C/c2cc4ccccc4[nH]2)C(=O)N3)cnc2c1NCCO2` [Compound C62, (Z)-3-((1H-indol-2-yl)methylene)-5-(8-methyl-2,3-dihydro-1H-pyrido[2,3-b][1,4]oxazin-7-yl)indolin-2-one]: the IC50 was found to be 50 pM.

In the case of `Cc1c(-c2ccc3c(c2)/C(=C/c2cc4cnccc4[nH]2)C(=O)N3)cnc2c1NCCO2` [Compound C60, (Z)-3-((1H-pyrrolo[3,2-c]pyridin-2-yl)methylene)-5-(8-methyl-2,3-dihydro-1H-pyrido[2,3-b][1,4]oxazin-7-yl)indolin-2-one], the IC50 is 60 pM.

For the molecule `Cc1ncc(/C=C2\C(=O)Nc3c(F)cc(-c4cnc5c(c4C)NCCO5)cc32)[nH]1` [Compound C10, (Z)-7-fluoro-3-((2-methyl-1H-imidazol-5-yl)methylene)-5-(8-methyl-2,3-dihydro-1H-pyrido[2,3-b][1,4]oxazin-7-yl)indolin-2-one], the IC50 came to 220 pM.

For the molecule `Cc1c[nH]c(/C=C2\C(=O)Nc3c(C)cc(-c4cnc5c(c4C)NCCO5)cc32)c1` [Compound C24, (Z)-7-methyl-3-((4-methyl-1H-pyrrol-2-yl)methylene)-5-(8-methyl-2,3-dihydro-1H-pyrido[2,3-b][1,4]oxazin-7-yl)indolin-2-one], the IC50 came out at 2930 pM.

In the case of `Cc1ncc(/C=C2\C(=O)Nc3cc(C)c(-c4cnc5c(c4C)NCCO5)cc32)[nH]1` [Compound C3, (Z)-6-methyl-3-((2-methyl-1H-imidazol-5-yl)methylene)-5-(8-methyl-2,3-dihydro-1H-pyrido[2,3-b][1,4]oxazin-7-yl)indolin-2-one], the IC50 worked out at 190 pM.

Regarding `Cc1c(-c2ccc3c(c2)/C(=C/c2nc4ccccc4[nH]2)C(=O)N3)cnc2c1NCCO2` [Compound C59, (Z)-3-((1H-benzo[d]imidazol-2-yl)methylene)-5-(8-methyl-2,3-dihydro-1H-pyrido[2,3-b][1,4]oxazin-7-yl)indolin-2-one], the IC50 was found to be 280 pM.

`Cc1c(-c2cc(F)c3c(c2C)/C(=C/c2cc4ncccc4[nH]2)C(=O)N3)cnc2c1NCCO2` [Compound C64, (Z)-3-((1H-pyrrolo[3,2-b]pyridin-2-yl)methylene)-7-fluoro-4-methyl-5-(8-methyl-2,3-dihydro-1H-pyrido[2,3-b][1,4]oxazin-7-yl)indolin-2-one]: the half-inhibitory concentration (IC50) was 310 pM.

On to `Cc1ncc(/C=C2\C(=O)Nc3c(F)cc(-c4cnc5c(c4C)NCCO5)c(C)c32)[nH]1` [Compound C4, (Z)-7-fluoro-4-methyl-3-((2-methyl-1H-imidazol-5-yl)methylene)-5-(8-methyl-2,3-dihydro-1H-pyrido[2,3-b][1,4]oxazin-7-yl)indolin-2-one], for which the IC50 came out at 150 pM.

For the molecule `Cc1c[nH]c(/C=C2\C(=O)Nc3c(Cl)cc(-c4cnc5c(c4C)NCCO5)cc32)c1` [Compound C22, (Z)-7-chloro-3-((4-methyl-1H-pyrrol-2-yl)methylene)-5-(8-methyl-2,3-dihydro-1H-pyrido[2,3-b][1,4]oxazin-7-yl)indolin-2-one], the IC50 worked out at 2610 pM.

`Cc1ncc(/C=C2\C(=O)Nc3ccc(-c4cnc5c(c4C)NCCO5)cc32)[nH]1` [Compound C15, (Z)-3-((2-methyl-H-imidazol-5-yl)methylene)-5-(8-methyl-2,3-dihydro-1H-pyrido[2,3-b][1,4]oxazin-7-yl)indolin-2-one]: the IC50 was 70 pM.

For `Cc1c(-c2cc3c(cc2F)NC(=O)/C3=C\c2cc3ncccc3[nH]2)cnc2c1NCCO2` [Compound C44, (Z)-3-((1H-pyrrolo[3,2-b]pyridin-2-yl)methylene)-6-fluoro-5-(8-methyl-2,3-dihydro-1H-pyrido[2,3-b][1,4]oxazin-7-yl)indolin-2-one], the IC50 is 50 pM.

As for `Cc1c(-c2cc(F)c3c(c2)/C(=C/c2cc4ccccc4[nH]2)C(=O)N3)cnc2c1NCCO2` [Compound C53, (Z)-3-((1H-indol-2-yl)methylene)-7-fluoro-5-(8-methyl-2,3-dihydro-1H-pyrido[2,3-b][1,4]oxazin-7-yl)indolin-2-one], the IC50 came out at 160 pM.

As to `Cc1c(-c2cc(F)c3c(c2)/C(=C/c2cc4ncccc4[nH]2)C(=O)N3)cnc2c1NCCO2` [Compound C46, (Z)-3-((1H-pyrrolo[3,2-b]pyridin-2-yl)methylene)-7-fluoro-5-(8-methyl-2,3-dihydro-1H-pyrido[2,3-b][1,4]oxazin-7-yl)indolin-2-one], the IC50 was found to be 50 pM.

Take `Cc1c[nH]c(/C=C2\C(=O)Nc3ccc(-c4cnc5c(c4C)NCCO5)cc32)c1` [Compound C28, (Z)-3-((4-methyl-H-pyrrol-2-yl)methylene)-5-(8-methyl-2,3-dihydro-1H-pyrido[2,3-b][1,4]oxazin-7-yl)indolin-2-one]: the IC50 came to 50 pM.

Regarding `Cc1c(-c2cc3c(cc2F)NC(=O)/C3=C\c2cc3cnccc3[nH]2)cnc2c1NCCO2` [Compound C49, (Z)-3-((1H-pyrrolo[3,2-c]pyridin-2-yl)methylene)-6-fluoro-5-(8-methyl-2,3-dihydro-1H-pyrido[2,3-b][1,4]oxazin-7-yl)indolin-2-one], the IC50 amounted to 160 pM.

Regarding `Cc1c(-c2ccc3c(c2)/C(=C/c2ncc[nH]2)C(=O)N3)cnc2c1NCC1(CC1)O2` [Compound C72, (Z)-3-((1H-imidazol-2-yl)methylene)-5-(8′-methyl-1′,2′-dihydrospiro[cyclopropane-1,3′-pyrido[2,3-b][1,4]oxazin]-7′-yl)indolin-2-one], the IC50 was found to be 2130 pM.

On to `Cc1c(-c2cc(F)c3c(c2C)/C(=C/c2ccc[nH]2)C(=O)N3)cnc2c1NCCO2` [Compound C14, (Z)-3-((1H-pyrrol-2-yl)methylene)-7-fluoro-4-methyl-5-(8-methyl-2,3-dihydro-1H-pyrido[2,3-b][1,4]oxazin-7-yl)indolin-2-one], for which the IC50 worked out at 290 pM.

As for `Cc1c(-c2ccc3c(c2)/C(=C/c2c[nH]c4ccccc24)C(=O)N3)cnc2c1NCCO2` [Compound C70, (Z)-3-((1H-indol-3-yl)methylene)-5-(8-methyl-2,3-dihydro-1H-pyrido[2,3-b][1,4]oxazin-7-yl)indolin-2-one], the IC50 came out at 420 pM.
